Tested on: Cu-induced LDL oxidation in human serum
Experiment: Cu-induced LDL oxidation in human serum ex vivo (fluorescence)
Conditions: after 2 hrs of serum exposure to copper ions
Procedure: Total amounts of cholesterol, HDL, LDL, triglycerides were measured using Cholestech System. SPG in powder form was provided by VDF FutureCeuticals, Inc. and dissolved in water at various ad indicated concentrations. Copper chloride was from Sigma. Black transparent-bottom 96-well plates were from Nalgene Nunc International. Oxidation of LDL was measured using fluorescence methods as described elsewhere (supra). Cu-induced LDL oxidation was performed in PBS (100 ul/well) with 4 ul of human sera, 2 ul of copper chloride (concentration 4 mM) and 0.5 ul of H2O2 (concentration 88.2 nM) resulting in 8-uM concentration of copper ions and 44 μM of hydrogen peroxide, respectively. Formation of Cu-induced oxLDL was measured directly in human serum using a 96-well plate set up and Gemini Fluorescent plate reader (Molecular Devices). The fluorescence signal at 360/430 and 360/470 was measured at time 0, 2 and 16 hours. oxLDL fluorescence values compared to concentration 0 on each graph show how much fluorescent signal for oxidized LDL increased between time 0 and 2 or 16 hrs, respectively, while the value at concentration 0 represents the max increase of oxLDL generation under the experimental conditions.

Structure (SMILES): O=C1O[C@H]([C@@H](O)CO)C(O)=C1O [ascorbic acid]
- IC50 of Cu-induced LDL oxidation in serum: 69 µg/mL
